According to US20240425464A1, “Substituted Monohydrazides as Potent Antifungal Agents” (University of Kentucky Research Foundation, priority 2023, published 2024):
In brackets after ≈: the same amount, converted by molar mass. Read-outs that look alike come from different tables or passages of the source.

Assays:
Type in all cases: cell-based, Candida albicans
[1] = system: C. albicans ATCC 10231 (strain A); experiment: MIC determination by in vitro antifungal assay (CLSI broth dilution); conditions: strain A = C. albicans ATCC 10231, no visible growth, 48 h at 35° C.
Experimental: (§1) 10 mg/mL stock solutions of compounds 1a-9j were prepared in dimethyl sulfoxide (DMSO) and were stored at −20° C. in the dark. The antifungal agent amphotericin B (AmB) was purchased from VWR (Radnor PA, USA). AmB was dissolved in DMSO at a final concentration of 5 mg/mL and was stored at −20° C., protected from light. Candida albicans American Type Culture Collection (ATCC) 10231 (strain A), C. albicans ATCC 64124 (B), and C. albicans ATCC MYA-2876 (C) were obtained from Utah State University. C. albicans ATCC 90819 (D), C. albicans ATCC MYA-2310 (E), C. albicans ATCC MYA-1237 (F), C. albicans ATCC MYA-1003 (G), Candida glabrata ATCC 2001 (H), Candida krusei ATCC 6258 (I), Candida parapsilosis ATCC 22019 (J), Cryptococcus neoformans ATCC MYA-895 (M), Aspergillus terreus ATCC MYA-3633 (N), and Aspergillus flavus ATCC MYA-3631 (0) were obtained from the American Type Culture Collection (ATCC; Manassas, VA, USA). Aspergillus nidulans ATCC 38163 (P) was obtained from University of Kentucky. Clinically derived Aspergillus fumigatus NRRL 163 (Q), A. fumigatus NRRL 5109 (R), and A. fumigatus NRRL 6113 (S) were obtained from Northern Regional Research Laboratory (NRRL). Candida auris 384 (K), C. auris 390 (L), and fungal strains 381-400 (including 10 C. auris (AR Bank #381-390), 3 Candida duobushaemulonii (AR Bank #391, AR Bank #392, and AR Bank #394), 2 Candida haemulonii (AR Bank #393 and AR Bank #395), 1 Kodameae ohmeri (AR Bank #396), 1 C. krusei (AR Bank #397), 1 Candida lusitaniae (AR Bank #398), and 2 Saccharomyces cerevisiae strains (AR Bank #399 and AR Bank #400)) were part of a larger fungal library from the AR Bank maintained by the Centers for Disease Control and Prevention (CDC; Atlanta, GA, USA). Filamentous fungi and yeasts were cultivated at 35° C. in RPMI 1640 medium (with L-glutamine, without sodium bicarbonate, Sigma-Aldrich, St. Louis, MO) buffered to a pH of 7.0 with 0.165 M morpholinepropanesulfonic acid (MOPS) buffer (Sigma-Aldrich). For cytotoxicity assays, HepG2 and the mouse macrophage cell line J774A.1 were obtained from University of Kentucky. The human embryonic kidney cell line, HEK-293, was bought from the ATCC. Mammalian cells were grown in Dulbecco's Modified Eagle's Medium (DMEM) (from VWR) with 10% fetal bovine serum (FBS) (from VWR) and 1% Pen/Strep (from ATCC). Cell lines were cultured at 37° C. with 5% CO2 and passaged by trypsinization with 0.05% trypsin: 0.53 mM EDTA (from Sigma-Aldrich).
(§2) The MIC values of compounds 1a-9j against yeast cells (strains A-P and 381-400) were determined in 96-well plates as described in the CLSI documents M27-A3 and M38-A2 with minor modifications.^2 A single colony of freshly prepared yeast cells was used to inoculate 5 mL of yeast extract peptone dextrose (YPD) broth prior to incubation overnight with shaking at 200 rpm at 35° C. From the actively growing yeast culture, 100 µL were then transferred to 900 μL of RPMI 1640 medium and re-adjusted to achieve OD600 of 0.12 (˜1×10^6 CFU/mL). The cell suspension was further diluted to achieve 1:100 in RPMI 1640 medium. 100 μL of cells were added to the wells of a 96-well microtiter plates that contained 100 µL of the compound solution to obtain concentrations of 0.06-31.3 μg/mL of compounds 1a-9j or AmB prior to incubation for 48 h at 35° C. […]

[2] = system: C. albicans ATCC 64124 (B); experiment: MIC determination by in vitro antifungal assay
Experimental: as §1, §2

[3] = system: C. albicans ATCC 90819 (D); experiment: MIC determination by in vitro antifungal assay
Experimental: as §1, §2

[4] = system: C. albicans ATCC MYA-1003 (G); experiment: MIC determination by in vitro antifungal assay; conditions: strain G = C. albicans ATCC MYA-1063(R) (footnote), MYA-1003 in text
Experimental: as §1, §2

[5] = system: C. albicans ATCC MYA-1237 (F); experiment: MIC determination by in vitro antifungal assay; conditions: strain F = C. albicans ATCC MYA-1237(R)
Experimental: as §1, §2

[6] = system: C. albicans ATCC MYA-2310 (E); experiment: MIC determination by in vitro antifungal assay; conditions: strain E = C. albicans ATCC MYA-2310
Experimental: as §1, §2

[7] = system: C. albicans ATCC MYA-2876 (C); experiment: MIC determination by in vitro antifungal assay; conditions: strain C = C. albicans ATCC MYA-2876(S)
Experimental: as §1, §2

[8] = strain B = C. albicans ATCC 64124
[9] = strain D = C. albicans ATCC 90819(R)
[10] = Candida albicans, ATCC10231, 48 h, read-out: MIC
[11] = Candida albicans, ATCC64124, strain B = C. albicans ATCC 64124, read-out: MIC
[12] = Candida albicans, ATCC90819, strain D = C. albicans ATCC 90819(R), read-out: MIC
[13] = Candida albicans, read-out: MIC

| Structure (SMILES) | MIC [1] [μg/mL^−1] | MIC [2, 8] [μg/mL^−1] | MIC [3, 9] [μg/mL^−1] | MIC [4] [μg/mL^−1] | MIC [5] [μg/mL^−1] | MIC [6] [μg/mL^−1] | MIC [7] [μg/mL^−1] | MIC [1, 10] [µg/mL] | MIC [2, 11] [µg/mL] | MIC [3, 12] [µg/mL] | MIC [4, 13] [µg/mL] | MIC [5, 13] [µg/mL] | MIC [6, 13] [µg/mL] | MIC [7, 13] [µg/mL] |
| --- | --- | --- | --- | --- | --- | --- | --- | --- | --- | --- | --- | --- | --- | --- |
| COc1cccc(NNC(=O)c2ccc(F)cn2)c1 [Compound 3c] | 0.24 | 0.95 | 3.9 | 0.98 | 1.95 | 1.95 | 0.49 | – | – | – | – | – | – | – |
| O=C(NNc1ccc(F)cc1)c1ccc(F)cn1 [Compound 3d] | 0.49 | 1.95 | 1.95 | 1.95 | 1.95 | 3.9 | 3.9 | – | – | – | – | – | – | – |
| O=C(NNc1ccc(Cl)cc1)c1ccc(F)cn1 [Compound 3e] | 1.95 | 1.95 | 3.9 | 0.98 | 1.95 | 1.95 | 1.95 | – | – | – | – | – | – | – |
| COc1ccc(NNC(=O)c2ccc(F)cn2)cc1 [Compound 3f] | 0.24 | 0.98 | 0.98 | 0.49 | 0.49 | 0.98 | 0.98 | – | – | – | – | – | – | – |
| O=C(NNc1ccc(F)cc1F)c1ccc(F)cn1 [Compound 3g] | – | – | – | – | – | – | – | 0.49 (≈ 1.83 µM) | 1.95 (≈ 7.3 µM) | 1.95 (≈ 7.3 µM) | 0.98 (≈ 3.67 µM) | 1.95 (≈ 7.3 µM) | 1.95 (≈ 7.3 µM) | 1.95 (≈ 7.3 µM) |
| O=C(NNc1cccc(F)c1)c1ccc(Br)cn1 [Compound 4a] | 0.49 | 0.49 | 3.9 | 0.98 | 3.9 | 3.9 | 1.95 | – | – | – | – | – | – | – |
| COc1cccc(NNC(=O)c2ccc(Br)cn2)c1 [Compound 4c] | – | – | – | – | – | – | – | 0.98 (≈ 3.04 µM) | 0.98 (≈ 3.04 µM) | 3.9 (≈ 12.1 µM) | 0.98 (≈ 3.04 µM) | 1.95 (≈ 6.05 µM) | 1.95 (≈ 6.05 µM) | 0.49 (≈ 1.52 µM) |
| O=C(NNc1ccc(F)cc1)c1ccc(Br)cn1 [Compound 4d] | – | – | – | – | – | – | – | 1.95 (≈ 6.29 µM) | 7.8 (≈ 25.2 µM) | 7.8 (≈ 25.2 µM) | 1.9 (≈ 6.13 µM) | 7.8 (≈ 25.2 µM) | 7.8 (≈ 25.2 µM) | 7.8 (≈ 25.2 µM) |
| COc1ccc(NNC(=O)c2ccc(Br)cn2)cc1 [Compound 4f] | – | – | – | – | – | – | – | 3.9 (≈ 12.1 µM) | 3.9 (≈ 12.1 µM) | 3.9 (≈ 12.1 µM) | 1.95 (≈ 6.05 µM) | 0.98 (≈ 3.04 µM) | 3.9 (≈ 12.1 µM) | 1.95 (≈ 6.05 µM) |
| O=C(NNc1ccc(F)cc1F)c1ccc(Br)cn1 [Compound 4g] | – | – | – | – | – | – | – | 3.9 (≈ 11.9 µM) | 15.6 (≈ 47.5 µM) | 3.9 (≈ 11.9 µM) | 15.6 (≈ 47.5 µM) | 1.95 (≈ 5.94 µM) | > 31.3 | 0.98 (≈ 2.99 µM) |
| O=C(NNc1cccc(F)c1)c1cccc(F)n1 [Compound 5a] | 0.49 | 0.49 | 7.8 | 1.95 | 1.95 | 1.95 | 3.9 | – | – | – | – | – | – | – |
